Data taken from PMC4809600, “The Influence of Chronic Wound Extracts on Inflammatory Cytokine and Histatin Stability” (PLoS ONE, 2016).
Where no end group is shown, it is not given here.

Key:
[1] = Stability in chronic wound extracts (CWE), capillary zone electrophoresis; format: in vitro ADME, human; settings: 37°C, CZE; for Percentage intact, CWE 2h / Percentage intact, CWE 4h / Percentage intact, CWE 8h / Percentage intact, CWE 16h / Percentage intact, CWE 24h / Percentage intact, CWE 48h / Percentage intact, CWE 72h / Percentage intact, CWE 96h: 1 mg/ml in PBS mixed 1:1 with CWE (1 mg/ml protein, pool of 5 donors) in PBS, UV 200 nm, ratio to imidazole
How it was run: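 Peptides or cytokines (1 mg/ml stock) mixed 1:1 with PBS or pooled chronic-wound extract (1 mg/ml protein, three pools of five donors), ±protease inhibitor cocktail, at 37 °C for up to 96 h. Analyzed by capillary zone electrophoresis (pH 2.5 phosphate, 200 nm), with peak ratio to imidazole standard relative to 0 h as % intact.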

[2] = Dose response of Hst1 and PIC in the presence of CWE; format: in vitro ADME, human; settings: CWE 1 mg/ml, 37°C, CZE, 0 h = 100%; for Intact Hst1, CWE + PIC 1:140 24h / Intact Hst1, CWE + PIC 1:140 96h: PIC:CWE 1:140 v/v; for Intact Hst1, CWE + PIC 1:280 24h / Intact Hst1, CWE + PIC 1:280 96h: PIC:CWE 1:280 v/v
Description: For the dose response of PIC and Hst1, three different concentrations of Hst1 were prepared (0.5 mg/ml, 1 mg/ml and 2 mg/ml) and two different concentrations of PIC were used. The final PIC concentration in the CWE (1 mg/ml) sample was 1:140 v/v (same as above) or 1:280 v/v (2x diluted). Mixtures were incubated at 37°C and samples were taken at 0, 24 and 96 h.
The samples were analyzed with a BioFocus 2000 capillary zone electrophoresis system (Bio-Rad Laboratories, Hercules, CA, USA) equipped with an uncoated fused-silica capillary of internal diameter 50 μm and a length of 24 cm. Samples were loaded by pressure injection (5 psi/sec). Separation was performed at 10 kV (cathode at the detector side) at 20°C using 0.1 M phosphate buffer (pH 2.5) as electrolyte and monitored continuously at 200 nm. Peaks were quantified with the BioFocus Integrator software. In order to quantify the percentage of intact peptides remaining after incubation with CWE, the ratios of histatins, rhIL-6 or rhCXCL8 to internal standard was set at 100% at 0h, and the ratios at the other incubation time points were related to this.

[3] = Hst1 0.5 mg/ml, experiment 1 of 3
[4] = Hst1 0.5 mg/ml, experiment 2 of 3
[5] = Hst1 1 mg/ml, experiment 3 of 3
[6] = Hst1 2 mg/ml, experiment 1 of 3

With “DSHEKRHHGYRRKFHEKHHSHREFPFYGDYGSNYLYDN [Hst1]” the “Percentage intact, CWE 2h” value ([1]; 0 h = 100%, experiment 1 of 3) was 83.2738%, the “Percentage intact, CWE 2h” value ([1]; 0 h = 100%, experiment 2 of 3) was 87.1828% and the “Percentage intact, CWE 2h” value ([1]; 0 h = 100%, experiment 3 of 3) was 86.6201%. The “Percentage intact, CWE 4h” value ([1]; 0 h = 100%, experiment 1 of 3) was 58.4193%, the “Percentage intact, CWE 4h” value ([1]; 0 h = 100%, experiment 2 of 3) was 76.5418% and the “Percentage intact, CWE 4h” value ([1]; 0 h = 100%, experiment 3 of 3) was 73.9107%. The “Percentage intact, CWE 8h” value ([1]; 8 h, 0 h = 100%, experiment 1 of 3) was 32.9227%, the “Percentage intact, CWE 8h” value ([1]; 8 h, 0 h = 100%, experiment 2 of 3) was 52.8031% and the “Percentage intact, CWE 8h” value ([1]; 8 h, 0 h = 100%, experiment 3 of 3) was 51.366%. For the same sequence, the “Percentage intact, CWE 16h” value ([1]; 0 h = 100%, experiment 1 of 3) was 8.0136%, the “Percentage intact, CWE 16h” value ([1]; 0 h = 100%, experiment 2 of 3) was 20.767% and the “Percentage intact, CWE 16h” value ([1]; 0 h = 100%, experiment 3 of 3) was 27.1396%. For the same sequence, the “Percentage intact, CWE 24h” value ([1]; 24 h, 0 h = 100%, experiment 1 of 3) was 1.592%, the “Percentage intact, CWE 24h” value ([1]; 24 h, 0 h = 100%, experiment 2 of 3) was 7.881% and the “Percentage intact, CWE 24h” value ([1]; 24 h, 0 h = 100%, experiment 3 of 3) was 13.5375%. For the same sequence, the “Percentage intact, CWE 48h” value ([1]; 0 h = 100%, experiment 1 of 3) was 0.0001%, the “Percentage intact, CWE 48h” value ([1]; 0 h = 100%, experiment 2 of 3) was 0.0001% and the “Percentage intact, CWE 48h” value ([1]; 0 h = 100%, experiment 3 of 3) was 0.0001%. For the same sequence, the “Percentage intact, CWE 72h” value ([1]; 0 h = 100%, experiment 1 of 3) was 0.0001%, the “Percentage intact, CWE 72h” value ([1]; 0 h = 100%, experiment 2 of 3) was 0.0001% and the “Percentage intact, CWE 72h” value ([1]; 0 h = 100%, experiment 3 of 3) was 0.0001%. The “Percentage intact, CWE 96h” value ([1]; 0 h = 100%, experiment 1 of 3) was 0.0001%, the “Percentage intact, CWE 96h” value ([1]; 0 h = 100%, experiment 2 of 3) was 0.0001% and the “Percentage intact, CWE 96h” value ([1]; 0 h = 100%, experiment 3 of 3) was 0.0001%. For the same sequence, the remaining at 8 h, 0.5 mg/ml ([1]; human, chronic wound extracts (CWE), 1 mg/ml in PBS mixed 1:1 with CWE (1 mg/ml protein, pools of 5 donors), 8 h, 0 h = 100%, mean of 3 independent experiments, read-out: Original amount of peptide remaining intact after 8 h in CWE) was 46%, the remaining at 24 h, 0.5 mg/ml ([1]; human, chronic wound extracts (CWE), 1 mg/ml in PBS mixed 1:1 with CWE (1 mg/ml protein, pools of 5 donors), 24 h, 0 h = 100%, mean of 3 independent experiments, read-out: Original amount of peptide remaining intact after 24 h in CWE) was 8% and the metabolised at 8 h, 0.5 mg/ml ([1]; human, chronic wound extracts (CWE), incubation with chronic wound extracts, 8 h, read-out: Breakdown (degradation) in CWE in 8 h) was about 50%. For the same sequence, the “Intact Hst1, CWE + PIC 1:140 24h” value [2, 3] was 73.4639%, the “Intact Hst1, CWE + PIC 1:140 24h” value [2, 4] was 69.7277% and the “Intact Hst1, CWE + PIC 1:140 24h” value ([2]; Hst1 0.5 mg/ml, experiment 3 of 3) was 63.6084%. The “Intact Hst1, CWE + PIC 1:140 96h” value [2, 3] was 54.3382%, the “Intact Hst1, CWE + PIC 1:140 96h” value [2, 4] was 46.1353% and the “Intact Hst1, CWE + PIC 1:280 24h” value [2, 3] was 49.1645%. For the same sequence, the “Intact Hst1, CWE + PIC 1:280 24h” value [2, 4] was 30.5445%, the “Intact Hst1, CWE + PIC 1:280 96h” value [2, 3] was 24.1883% and the “Intact Hst1, CWE + PIC 1:280 96h” value [2, 4] was 18.189%. For the same sequence, the “Intact Hst1, CWE + PIC 1:140 24h” value [2, 5] was 58.7589%, the “Intact Hst1, CWE + PIC 1:140 96h” value [2, 5] was 38.9986% and the “Intact Hst1, CWE + PIC 1:280 24h” value [2, 5] was 38.2658%. The “Intact Hst1, CWE + PIC 1:280 96h” value [2, 5] was 25.9997%, the “Intact Hst1, CWE + PIC 1:140 24h” value [2, 6] was 77.6287% and the “Intact Hst1, CWE + PIC 1:140 24h” value ([2]; Hst1 2 mg/ml, experiment 2 of 3) was 76.5019%. The “Intact Hst1, CWE + PIC 1:140 24h” value ([2]; Hst1 2 mg/ml, experiment 3 of 3) was 68.9738% and the “Intact Hst1, CWE + PIC 1:140 96h” value [2, 6] was 61.2993%.
